Reference: patent US9045505B2, “Nitric oxide donors” (University of Otago, priority 2006, dated 2015)

Assays:
[1] = system: liver mitochondria; test: S-nitrosation of mitochondrial protein thiols (chemiluminescence SNO assay); type: biochemical, rat; conditions: for S-nitrosation of mitochondrial proteins: 2.5 min incubation, SNAP even at 50 μM
Method: FIG. 11 is a series of graphs showing S-nitrosation of mitochondrial thiols by MitoSNAP. (a) Time course of S-nitrosation of mitochondrial proteins by MitoSNAP. Liver mitochondria (1 mg protein) were incubated in 1 ml KCl buffer supplemented with rotenone and succinate in the presence of 5 μM MitoSNAP. At various times mitochondria were treated with 10 mM N-ethylmaleimide (NEM), isolated by centrifugation and the S-nitrosothiol content assessed. Data are of a typical experiment showing means±range of duplicate samples for each time point, each measured in duplicate. The experiment was repeated twice. (b) S-nitrosation of mitochondrial proteins by different concentrations of MitoSNAP and SNAP. Aliquots of liver mitochondria were incubated with the indicated concentrations of MitoSNAP or SNAP for […] in the presence or absence of 500 nM FCCP and then assessed for S-nitrosothiol content as in (a). For the +NEM sample, 10 mM NEM was added to the mitochondria and 1 min later 5 μM MitoSNAP was added and incubated for a further 2.5 min. Data are of a typical experiment showing means±range of duplicate samples for each time point, each measured in duplicate. The experiment was repeated twice. (c) S-nitrosation of cellular protein thiols by MitoSNAP. C2C12 cells were preincubated for 5 min in 2 ml cell culture medium containing either 20 μM FCCP or DMSO carrier, then 5 μM MitoSNAP or SNAP was added. After further incubation for 5 min at 37° C. in the dark, the medium was removed and the content of S-nitrosated proteins was measured. Data are means±range of the duplicate determinations. […] (d) S-nitrosation of a mitochondria-enriched cell subfraction. C2C12 cells were preincubated for 5 min in cell culture medium containing either 20 μM FCCP or dimethylsulfoxide (DMSO) carrier, then 5 μM MitoSNAP was added. After 5 min at 37° C. in the dark, the medium was removed and the cells were processed to isolate a mitochondria-enriched fraction and S-nitrosated protein was then determined Data are mean±sem of triplicate determinations (+MitoSNO1), or mean±range of duplicate determinations (+FCCP). (e & f) Visualisation of S-nitrosated mitochondrial proteins by copper/ascorbate-dependent labelling of thiols with a Cy3 fluorophore. Liver (e) or heart (f) mitochondria (1 mg protein) were incubated in 1 ml KCl buffer supplemented with rotenone and succinate in the presence of no additions, 10 μM MitoSNAP or 500 μM diamide for 5 min. S-nitrosated thiols were then selectively tagged with Cy3 maleimide and protein (10 μg) was then separated on a 12.5% SDS PAGE gel which was stained with coomassie blue and scanned for Cy3 fluorescence. The Cy3 fluorescence (SNO) and coomassie staining (coomassie) of each gel is shown.
FIG. 13 is a trace and graph showing limited S-nitrosation of mitochondria by DetaNONOate. […] Where indicated 500 μM DetaNONOate was added and the concentration of NO^• was measured over time, before 5 μM OxyHb was added. […] Then protein pellets were resuspended and processed for analysis of protein S-nitrosothiols. Control incubations in the presence of 10 mM NEM were also carried out. Data are means±range of two independent experiments each being the average of four mitochondrial incubations.
Nitrite, nitric oxide and S-nitrosothiol measurements. Nitrite was analyzed by the Griess assay (Molecular Probes). Nitric oxide was measured using an NO^• electrode (World Precision Instruments Ltd, UK) connected to an Apollo 4000 Free Radical Analyser. The electrode was inserted into a stirred, sealed 3 ml chamber with a Clark type O2 electrode (Rank Brothers, UK) built into its base and was thermostatted at 37° C. The NO^• electrode was calibrated by adding SNAP to argon-purged, saturated CuCl. OxyHb was prepared by reduction of bovine methemoglobin with sodium dithionite.

[2] = system: rat thoracic aorta; test: Relaxation of pre-contracted rat thoracic aorta (myograph); conditions: for EC50: pre-contracted rat thoracic aorta, read-out: EC50 blood vessel relaxation
Method: FIG. 16 is a series of graphs showing the vasodilatory and tissue protective effects of MitoSNAP. (a) Dose-response curves for the effect of MitoSNAP and related compounds on blood vessel relaxation. The effects of intact or decomposed MitoSNAP and SNAP on pre-contracted rat thoracic aorta mounted in a myograph were determined Data represent means±sem. For MitoSNAP n=8 from experiments on two independent rat aorta preparations. For decomposed MitoSNAP and SNAP experiments the data (n=4) are from one aorta preparation. (b) EC50 for the effect of MitoSNAP and SNAP on blood vessel relaxation. The EC50 values were determined from experiments shown in (a) above. ***p<0.001 by Student's unpaired t-test. (c & d) MitoSNAP protects against I/R injury in Langendorff-perfused mouse hearts. Hearts from C57BL6 mice were Langendorff perfused and subjected to 25 min global normothermic ischemia followed by 1 h of reperfusion. MitoSNAP or MitoNAP (100 nM final), or vehicle carrier, was added via an infusion port above the aortic cannula during reperfusion. Hearts were then stained with 2,3,5-triphenyltetrazolium chloride (TTC) to visualize infarct. (c) Protection of heart function by MitoSNAP during I/R injury. Left ventricular contractile function was recorded throughout the I/R protocol.
Sprague-Dawley rats (male 250-350 g) were anesthetized by intraperitoneal injection of ketamine and xylazine (100 and 16 mg/kg, respectively) and thoracic aortas were excized and placed in Krebs-Henseleit buffer (pH 7.3) at 37° C. […] The concentrations of MitoSNAP and SNAP were calculated using ε=950 M^−1.cm^−1 and 1168 M^−1.cm^−1 at 340-344 nm respectively in PBS supplemented with 10 μM DTPA.
The uptake of MitoSNAP into mitochondria within vascular tissue and the subsequent NO^• release may make MitoSNAP a potent vasodilator. This was evaluated by determining whether MitoSNAP could relax the smooth muscle in blood vessel walls. […]

SMILES | S-nitrosation of mitochondrial proteins [1] | EC50 [2] | maximum S-nitrosation as share of the total number of protein thiols available ([1]; 5 μM) | maximum extent of mitochondrial protein S-nitrosation ([1]; 5 μM) | S-nitrosated proteins after sulfosalicylic acid lysis and precipitation (control experiment) ([1]; 5 μM, 5 min, mean±SEM of 4) | time of peak S-nitrosation of mitochondrial proteins ([1]; 5 μM, liver mitochondria) | vasodilator effect after degradation of the SNO moiety ([2]; pretreated (light) to degrade SNO)
CC(=O)NC(C(=O)O)C(C)(C)SN=O (racemic) [SNAP, S-nitroso-N-acetyl-DL-penicillamine, reference compound] | negligible S-nitrosation | 0.0195 µM | – | – | – | – | –
CC(=O)NC(C(=O)NCCCCC[P+](c1ccccc1)(c1ccccc1)c1ccccc1)C(C)(C)SN=O.CS(=O)(=O)[O-] (stereo not drawn) [MitoSNAP, [5-(2-acetylamino-3-methyl-3-nitrosothio-butyrylamino)-penty1]-triphenylphosphonium methanesulfonate] | extensive, concentration-dependent S-nitrosation | 0.0045 µM | ~1% | ~500 pmol SNO/mg protein | 359±89 pmol SNO/mg protein | 2 to 3 min | ineffective
